Measured values published in paper PMC9241943, “LcCCL28-25, Derived from Piscine Chemokine, Exhibits Antimicrobial Activity against Gram-Negative and Gram-Positive Bacteria In Vitro and In Vivo” (Microbiology Spectrum, 2022).
In brackets after ≈: the same amount, converted by molar mass. Residues, ends and D or L forms follow the SMILES beside them.

How the values were obtained:
[1] = system: Aeromonas hydrophila ATCC 7966; format: cell-based; settings: ATCC 7966, 2 h
Method: (§1) The MIC assays were performed as previously described ([43]). Briefly, peptides were plated in a 2-fold dilution series (50 μL/well) of Mueller-Hinton broth (MHB) in Costar 96-well cell culture plates (Corning, NY, USA). Three repeats were set for each concentration. E. coli ATCC 25922, A. hydrophila ATCC 7966, P. aeruginosa PAO1, P. aeruginosa FRD1, S. aureus ATCC 25923, S. agalactiae ATCC 13813, S. pneumoniae ATCC 49619, methicillin-resistant S. aureus ATCC 43300, and methicillin-resistant S. aureus USA300 were cultured in Luria-Bertani (LB) medium, while K. pneumoniae CMCC46117 was cultured in tryptic soy broth (TSB) medium. Incubation was done at 37°C and 150 × g for 12 h. Bacteria were transferred to fresh MHB at a ratio of 1% (vol/vol) and incubated to reach a logarithmic growth phase. Then, 50 μL of a bacterial suspension at 4 × 10^6 CFU/mL was added to each well. […]

[2] = system: Klebsiella pneumoniae CMCC46117; format: cell-based; settings: CMCC46117, 2 h
Method: as §1

[3] = system: P. aeruginosa FRD1 biofilm; assay: Biofilm inhibition assay (crystal violet); format: cell-based, Pseudomonas aeruginosa; settings: P. aeruginosa FRD1, 6.25 μg/mL (0.5× MIC), 37°C 24 h, triplicate
Method: In vitro static biofilm models have been reported in many studies ([45][–][47]). A Pseudomonas aeruginosa mucoid strain, FRD1, isolated from a cystic fibrosis patient, was used for the biofilm inhibition and eradication assay. The FRD1 strain was shock cultured to logarithmic growth stage at 37°C and 150 × g. After cleaning using PBS and centrifuging thrice, the bacteria were resuspended in MHB medium (with 0.2% glucose) and gradient diluted to an OD600 value of ~0.01.
For the biofilm inhibition assay, 90-μL amounts of bacterial suspensions and 10-μL amounts of increasing concentrations of the peptide were added to a 96-well plate and coincubated at 37°C for 24 h. Then, bacterial biofilms were quantified as follows: (i) planktonic bacteria were removed by washing thrice using PBS, (ii) biofilm bacteria were fixed in 100 μL of 4% paraformaldehyde at room temperature for 15 min and (iii) stained with 100 μL of 0.1% crystal violet for 30 min, (iv) the dye was removed, followed by washing twice using PBS, adding 200 μL of 95% ethanol to each well to dissolve the crystal violet, and finally, (v) absorbance was measured at 590 nm using an EnSpire multimode plate reader (PerkinElmer, Singapore).

[4] = system: methicillin-resistant S. aureus standard strain USA300; assay: Neutropenic mouse thigh infection model; format: in vivo; settings: neutropenic BALB/c mice, 300 μg i.p. at 2 h postinfection
Method: Female BALB/c mice were used to construct a neutropenic murine thigh infection model as previously published ([48][–][50]). Briefly, mice (n = 9/group) were rendered neutropenic by consecutive intraperitoneal injections of 150 and 100 mg/kg of body weight cyclophosphamide at 4 and 1 day before bacterial injection ([51]). An S. aureus USA300 inoculum (~1.5 × 10^6 CFU/mL) was prepared by diluting logarithmic phase bacteria with fresh MHB. Each mouse was infected by intramuscular injection of 0.1 mL of the inoculum (~1.5 × 10^5 CFU) into the right thigh muscles. At 2 h postinfection, 0.1 mL of lcCCL28-25 peptide (300 μg) or vancomycin hydrochloride (300 μg, 15 mg/kg) was administered by intraperitoneal injection. The control group was injected with an equal volume of PBS. Untreated control mice were sacrificed at the start of treatment to establish the baseline bacterial burden. Mice in the three treatment groups (PBS, vancomycin, and lcCCL28-25) were sacrificed at 48 h postinfection. Their right thighs were aseptically harvested, placed in sterile saline and homogenized using a Bioprep-6 homogenizer (Allsheng, Hangzhou, China). After being serially diluted to 1:10 in sterile saline, 100-μL amounts of tissue suspensions at various concentrations were plated on LB agar to determine bacterial counts after incubation at 37°C for 24 h.

S. aureus ATCC 25923 = assay: SYTOX green membrane permeability assay; format: cell-based, Staphylococcus aureus; settings: S. aureus ATCC 25923, 5 μM SYTOX green, read every 1 min
Method: The SYTOX green staining assay was performed to assess peptide-associated membrane damage ([47], [52]). E. coli ATCC 25922 and S. aureus ATCC 25923 cells in the mid-logarithmic phase were collected, washed thrice, and resuspended (5 × 10^7 CFU/mL) in buffer B (10 mM Tris-HCl, pH 7.4, at 25°C). The bacterial suspensions were mixed with 5 μM SYTOX green and incubated for 15 min at room temperature in the dark. Then, the mixtures were added to black, clear-bottom 96-well plates at a density of 100 μL/well. After peptide addition, SYTOX green uptake was monitored using an EnSpire multimode plate reader (PerkinElmer, Singapore) with an excitation wavelength of 485 nm and an emission wavelength of 520 nm. Each measurement interval was 1 min, totaling 30 to 60 times. Melittin was used as the positive control, while bovine serum albumin (BSA) was the negative control.

CSCC[C@H](NC(=O)[C@H](Cc1c[nH]c2ccccc12)NC(=O)[C@H](CCCCN)NC(=O)[C@@H]1CCCN1C(=O)[C@H](Cc1c[nH]cn1)NC(=O)[C@H](C)N)C(=O)N[C@@H](CCC(=O)O)C(=O)N[C@H](C(=O)N[C@H](C(=O)N[C@@H](CCCNC(=N)N)C(=O)N[C@@H](CO)C(=O)N[C@@H](CCCNC(=N)N)C(=O)N[C@@H](CCC(N)=O)C(=O)N[C@@H](CCCNC(=N)N)C(=O)N[C@@H](CCCCN)C(=O)N[C@@H](CCCCN)C(=O)N[C@@H](CCCCN)C(=O)N[C@@H](Cc1c[nH]cn1)C(=O)N[C@@H](CC(N)=O)C(=O)N[C@@H](CCCCN)C(=O)N[C@@H](CCCNC(=N)N)C(=O)N[C@@H](CCCNC(=N)N)C(=O)N[C@@H](C)C(=O)N[C@H](C(=O)N[C@@H](Cc1ccc(O)cc1)C(=O)O)[C@@H](C)O)C(C)C)C(C)C [lcCCL28-25] (H-AHPKWMEVVRSRQRKKKHNKRRATY-OH; N-terminus and C-terminus assumed)
MIC [1]: >50.00 mg/L
MIC [2]: 25.00 mg/L (≈ 7.83 µM)
reduction of biofilm formation [3]: ~ 64%
reduction in average bacterial load in thighs versus control group ([4]; S. aureus USA300 i.m., 48 h postinfection): 0.86 log10 CFU/g
mice that died after 48 h of infection ([4]; n = 9/group, three died in PBS group): one
SYTOX green fluorescence intensity (S. aureus ATCC 25923): increased rapidly within 20 min
